The values below come from patent US20190314318A1, “SUPPRESSION AND PREVENTION OF TUMORS AND TREATMENT OF VIRUSES” (priority 2018, published 2019).

The conditions of data set [1]: in vivo; cited from earlier work.
Data set [2] in a line: Additional benefits observed in people taking betaine. Format: in vivo, human. The source says:
Betaine is known to improve cardiovascular health, and can benefit people with fatty deposits in the liver. […] After only a few weeks of taking the betaine, cholesterol levels are reduced and the ability to lose weight is improved.

The mark [3] stands for this setting: after only a few weeks of taking the betaine.

`C[N+](C)(C)CC(=O)[O-]` [betaine, trimethylglycine]: the serious side effects result in data set [1] is recorded as “no known serious side effects”. Besides, the “tendency to be light headed on getting up after prolonged squatting or kneeling” value in data set [2] (a few doses of betaine at about one and a half to about three grams per day, especially older people) is listed as “considerably lessened”. In addition, in data set [2] (setting [3]), the “ability to lose weight” value is reported as “improved” and the cholesterol levels entry was “reduced”.
